# Experimental data published in article PMC7966987, “Insights into the catalytic properties of the mitochondrial rhomboid protease PARL” (The Journal of Biological Chemistry, 2021).
# Residues, ends and D or L forms follow the SMILES beside them.
# T1: PARLΔ77 (Homo sapiens, UniProt Q9H300)
# T1 construct: GFP-hexahistidine (behind a TEV cleavage site) (C, cleaved yes); made in house; host or cells: Pichia pastoris
# T1 sequence (Q9H300 78-379): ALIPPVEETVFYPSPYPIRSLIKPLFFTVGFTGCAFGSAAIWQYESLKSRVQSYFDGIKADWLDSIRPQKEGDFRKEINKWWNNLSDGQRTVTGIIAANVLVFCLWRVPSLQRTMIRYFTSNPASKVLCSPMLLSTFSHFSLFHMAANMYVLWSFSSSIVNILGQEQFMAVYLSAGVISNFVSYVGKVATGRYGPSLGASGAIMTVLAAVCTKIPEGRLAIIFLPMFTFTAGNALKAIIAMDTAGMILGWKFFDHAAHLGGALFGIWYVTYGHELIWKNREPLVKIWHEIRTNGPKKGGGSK
# Tests used:
# [1] = biological target: T1, PARLΔ77; experiment: Inhibition by commercial serine protease inhibitors, PARLΔ77 in detergent; type: biochemical; settings: 100 μM inhibitor, IQ-PINK1 and IQ-PGAM5 substrates, N=3
# Text: We examined whether inhibitors belonging to three standard serine protease inhibitors families—sulfonyl fluoride (PMSF), chloromethyl ketone (TPCK), and coumarin (DCI)—were able to inhibit PARL when tested with IQ-PINK1 and IQ-PGAM5 substrates. […] Overall this supports the view that for PARL, specific inhibitors will need to be developed similar to bacterial rhomboid proteases ([48], [49]). […]
# (§1) inhibitors. Bar graphs for percent activity of detergent solubilized (A) and proteoliposome reconstituted (B) PA R L Δ77with100µMofinhibitoradded prior to the addition of IQ-PINK1 and IQ-PGAM5 substrates. Experiments were conducted in duplicate with an N=3.
# (§2) Individual data points (black dots) are indicated on the bar graphs, representing the mean […]
# [2] = biological target: T1, PARLΔ77; experiment: Inhibition by commercial serine protease inhibitors, PARLΔ77 in proteoliposomes; type: biochemical; settings: 100 μM inhibitor, in PL, IQ-PINK1 and IQ-PGAM5 substrates, N=3
# Protocol: We examined whether inhibitors belonging to three standard serine protease inhibitors families—sulfonyl fluoride (PMSF), chloromethyl ketone (TPCK), and coumarin (DCI)—were able to inhibit PARL when tested with IQ-PINK1 and IQ-PGAM5 substrates. […] Overall this supports the view that for PARL, specific inhibitors will need to be developed similar to bacterial rhomboid proteases ([48], [49]).
# The activity assay with PARL reconstituted in PL was performed the same way as for PARL in DDM with the only difference being the activity buffer, where DDM was omitted (50 mM Tris-HCl pH 7.0, 150 mM NaCl, 10% glycerol). For inhibitory studies, PARL in PL (0.8 μM) was incubated with inhibitors (20 μM) in activity buffer for 30 min, and then the proteolytic reaction was started with the addition of substrate (5 μM). […]
# as §1, §2
# [3] = system: Rhomboid-1; settings: cited from earlier work
# Text: (§3) Rhomboids were initially discovered to be serine proteases because the first identified rhomboid protease from Drosophila, Rhomboid-1, was sensitive to serine protease inhibitors dichloroisocoumarin (DCI) and tosyl phenylalanyl chloromethylketone (TPCK) ([44]).
# [4] = biological target: T1, PARLΔ77; experiment: Competition assay, IQ-PGAM5(20-29) cleavage in presence of PINK1(89-111); type: biochemical; settings: read-out: Ki (Kd represented by Ki of the PARL-PINK1(89-111) complex)
# Text: (§4) To determine if substrates bind to the same site, we performed competition binding assays using fluorescent IQ-PGAM5^20–29 and IQ-Smac/Diablo^51–60 as the main substrates and nonfluorescent PINK1^89–111 (^89[…]^111) as a competing substrate (Fig. 4). The longer version of substrate was used in this assay in order to reveal possible exosite interactions of substrate with PARL, assuming that regions surrounding the cleavage site might be involved in a primary substrate binding with a putative exosite.
# (§5) Fluorescence detection of each substrate concentration in the presence of corresponding PINK189-111 without enzyme was used as a negative control. Initial velocities were determined for each substrate concentration. Michaelis–Menten plots were subjected to global fit to distinguish the kinetic model and determine the kinetic parameters. Values are represented as mean ± SEM (N = 3). […] The only names printed in the panels are the substrates on the x-axis, and KM and kcat are assigned to them.
# (§6) The Michaelis–Menten curves of PARL-mediated cleavage of IQ-PGAM5^20–29 and IQ-Smac/Diablo^51–60 were obtained in the presence of different concentrations of PINK1^89–111.
# [5] = biological target: T1, PARLΔ77; experiment: Competition assay, IQ-Smac/Diablo(51-60) cleavage in presence of PINK1(89-111); type: biochemical; settings: read-out: Ki (Kd represented by Ki of the PARL-PINK1(89-111) complex)
# Text: as §4, §5, §6
# [6] = system: bacterial rhomboid proteases; settings: cited from earlier work
# Text: as §3
# [7] = biological target: PARLΔ77 (β-cleavage form of human PARL) (human) (UniProt Q9H300); experiment: competitive inhibition of FRET peptide cleavage (enzyme kinetics); PARLΔ77 0.8 μM; IQ-PGAM5 20-29 (0.13-19 μM) as main substrate; nonfluorescent PINK1 89-111 at 2.5, 5, 10, 20 μM; Michaelis–Menten plots fitted globally, competitive model; Kd represented by Ki
# PARLΔ77 (β-cleavage form of human PARL) (human), sequence (Q9H300 77-379, stated change not applied): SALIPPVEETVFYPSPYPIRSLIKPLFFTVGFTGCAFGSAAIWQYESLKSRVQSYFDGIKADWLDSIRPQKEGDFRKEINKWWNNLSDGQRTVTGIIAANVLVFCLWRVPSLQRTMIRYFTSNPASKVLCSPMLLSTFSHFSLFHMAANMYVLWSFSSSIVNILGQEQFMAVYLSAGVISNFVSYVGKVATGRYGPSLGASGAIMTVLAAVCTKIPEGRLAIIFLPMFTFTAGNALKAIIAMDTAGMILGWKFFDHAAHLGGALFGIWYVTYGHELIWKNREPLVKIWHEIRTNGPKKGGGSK
# [8] = biological target: PARLΔ77 (β-cleavage form of human PARL) (human) (UniProt Q9H300); experiment: competitive inhibition of FRET peptide cleavage (enzyme kinetics); PARLΔ77 0.8 μM; IQ-Smac/Diablo 51-60 (0.3–25 μM) as main substrate; nonfluorescent PINK1 89-111 at 2.5, 5, 10, 20 μM; Michaelis–Menten plots fitted globally, competitive model; Kd represented by Ki
Molecule,inhibition of PARL activity [1],inhibition of PARL activity [2],inhibition of Drosophila Rhomboid-1 [3],also measured
"O=c1oc(Cl)c(Cl)c2ccccc12 [DCI, dichloroisocoumarin]",largest inhibitory effect,largest inhibitory effect,sensitive,
CC[C@H](C)[C@H](NC(=O)[C@H](CC(C)C)NC(=O)CNC(=O)[C@H](CC(C)C)NC(=O)CNC(=O)[C@H](CC(C)C)NC(=O)CNC(=O)[C@H](Cc1ccccc1)NC(=O)[C@H](C)NC(=O)[C@H](CC(C)C)NC(=O)[C@H](Cc1ccccc1)NC(=O)[C@@H](NC(=O)[C@H](C)NC(=O)[C@H](CCCNC(=N)N)NC(=O)CNC(=O)[C@H](CS)NC(=O)[C@@H]1CCCN1C(=O)CNC(=O)[C@H](C)NC(=O)[C@H](CS)NC(=O)CNC(=O)[C@H](Cc1c[nH]c2ccccc12)NC(=O)[C@H](C)NC(=O)[C@H](CO)NC(=O)CN)C(C)C)C(=O)O [PINK1^89–111] (H-GSAWGCAGPCGRAVFLAFGLGLGLI-OH),,,,Ki [4]: 2400 ± 600 nM; Ki [5]: 2300 ± 700 nM
O=S(=O)(F)Cc1ccccc1 [PMSF],not inhibited,not inhibited,,inhibition of bacterial rhomboid proteases [6]: does not act on bacterial rhomboid proteases
"Cc1ccc(S(=O)(=O)N[C@@H](Cc2ccccc2)C(=O)CCl)cc1 [TPCK, tosyl phenylalanyl chloromethylketone]",partially inhibits,partially inhibits,sensitive,
"AWGCAGPCGRAVFLAFGLGLGLI [PINK1 TM domain (amino acids 89–111), nonfluorescent]",,,,Ki [7]: 2400 nM; Ki [8]: 2300 nM
